From PMC4900628, “Critical Evaluation of P2X7 Receptor Antagonists in Selected Seizure Models” (PLoS ONE, 2016) come the findings set out here.

The structures appear in SMILES notation.

The test system of the experiment is PTZ-induced generalized clonic seizures. The experiment in a line: Pentylenetetrazol seizure threshold test (PTZ-T). Type of experiment: in vivo. The settings on record: for Cases of death (within 30 min) / Latency to the first gen. Clonus (% control) / Latency to the first gen. Clonus: mice; for Cases of death (within 30 min): n=12; for Latency to the first gen. Clonus / # of mice/ with seizures: all i.p. 30 min before PTZ 87 mg/kg s.c.; for Latency to the first gen. Clonus: mean ± SEM. As to the method:
Unrestrained mice, placed in separate full-view Plexiglas cages, were injected with the convulsant drug PTZ, a non-competitive GABAA receptor antagonist, at a dose of 87 mg/kg s.c. in the neck and the appearance of the first generalized clonus (repeated clonic seizures of the fore- and hindlimbs lasting ≥3 s with an accompanying loss of righting reflex) was recorded during individual observation for 30 min (see [69]). […] Group sizes of 12 mice were used in all experiments. Control groups, which received vehicle, were tested together with the compound-treated group on the same experimental day. The number of animals in the group with a generalized clonic seizure and the latency time to its onset were analysed for statistical significance. In the absence of seizures within 30 min, the latency was taken as 1800 s.
For the seizure tests (MES-T, PTZ-T, PTZ-kindling), BBG and TIIAS was dissolved in polyethylene glycol (PEG BioUltra, 400, Sigma-Aldrich), diluted to 20% with aqua (aqua ad iniectabilia, Braun, Melsungen, Germany). AFC was solubilized in ≥97% N,N-dimethylacetamide (DMA, Sigma-Aldrich), vortexed and diluted with 45% 2-hydroxypropyl-ß-cyclodextrin (ß-CD, Sigma-Aldrich) (final ratio of the vehicle 1:9). JNJ-47965567 was solubilized in two equivalents of 1N HCl, vortexed and sonicated (until the compound was mostly diluted) and then 30% of sulfobutylether-ß-cyclodextrin (SBE-ß-CD, Toronto Res. Chemicals, Toronto, Canada) was slowly added. The pH was adjusted with 1N NaOH (similar amount of NaOH as HCl), all with continuous stirring. PTZ was dissolved in 0.9% NaCl-solution, carbamazepine, ethosuximide and Ca-valproate were administered in a 2% (w/v) suspension of hydroxyethylcellulose. The drug solutions or suspensions were prepared immediately before use; all doses refer to the salts. Animals in the control group received equivalent volumes of the vehicle (in mice always 10 ml/kg, in rats 1 ml/kg [JNJ], 3 ml/kg [AFC] or 4 ml/kg [BBG, TIIAS], depending on the solubility of the different compounds). Doses and peak time effects were selected on the basis of effective doses from corresponding in vivo studies in the literature: BBG (e.g.), tanshinone IIA (e.g.) and from manufacturer’s experimental data: AFC, JNJ (see, [80]).
Data were analysed using SigmaPlot (vers. 12.0, Systat Software, Erkrath, Germany) and SPSS (IBM SPSS Statistics 20, Ehningen, Germany), respectively. Results are expressed as mean ± SEM. In the fluorometric Ca^2+ assays, concentration-response curves were fitted by using a 4-parameter logistic function (Hill slope, Emin, Emax, IC50). […] In the MES-T, the current intensity inducing tonic hindlimb extensions in 50% of the mice (CC50 values with confidence limits for 95% probability) and the statistical significance was calculated using Probit analysis (SPSS). In the case of multiple comparisons between different groups α-correction was performed so that only differences with a P value of < 0.01 were considered significant. In the PTZ-T, the number of animals in the group with clonic seizures and the latency time were analysed using Fisher's exact probability test and the Mann-Whitney rank sum test, respectively. For multiple comparisons of the latency time a one-way ANOVA with the Holm-Sidak post hoc test was used. The influence of AFC on the plasma and brain concentrations of the antiepileptic drugs was statistical compared using the same procedure. In the PTZ-kindling model, the mean seizure stage within a group was calculated in relation to the number of PTZ-injections. Statistical comparison between vehicle- and compound-treated groups in this model was performed with two-way repeated measures ANOVA, followed by the Holm-Sidak post hoc test. The mean number of PTZ-injections needed to produce the first generalized seizure (≥ stage 3 convulsions) in the vehicle- versus compound-treated groups was statistically compared using a Mann-Whitney rank sum test.

Setting [1] is: series AFC-5128 25 mg/kg and/or ethosuximide 100 mg/kg.
Setting [2] is: series AFC-5128 50 mg/kg and/or ethosuximide 100 mg/kg.
The mark [3] stands for this setting: series JNJ-47965567 15 mg/kg and/or ethosuximide 100 mg/kg.
Setting [4] is: series JNJ-47965567 30 mg/kg and/or ethosuximide 100 mg/kg.

In the case of `CCC1(C)CC(=O)NC1=O` (stereo not shown) [Ethosuximide, ethosuximide], the “Cases of death (within 30 min)” value was 1 (series AFC-5128 25 mg/kg and/or ethosuximide 100 mg/kg i.p. 30 min before PTZ 87 mg/kg s.c.), 1 (series AFC-5128 50 mg/kg and/or ethosuximide 100 mg/kg i.p. 30 min before PTZ 87 mg/kg s.c.), 0 (series JNJ-47965567 15 mg/kg and/or ethosuximide 100 mg/kg i.p. 30 min before PTZ 87 mg/kg s.c.) and 1 (series JNJ-47965567 30 mg/kg and/or ethosuximide 100 mg/kg i.p. 30 min before PTZ 87 mg/kg s.c.). In addition, the “Latency to the first gen. Clonus (% control)” value is given as 312.6 ± 65.8% (series AFC-5128 25 mg/kg and/or ethosuximide 100 mg/kg i.p. 30 min before PTZ, control 4.53 ± 0.56 min); 200.6 ± 27.0% (series AFC-5128 50 mg/kg and/or ethosuximide 100 mg/kg i.p. 30 min before PTZ, control 10.83 ± 2.67 min); 244.3 ± 75.3% (series JNJ-47965567 15 mg/kg and/or ethosuximide 100 mg/kg i.p. 30 min before PTZ, control 4.74 ± 0.64 min); 209.0 ± 51.1% (series JNJ-47965567 30 mg/kg and/or ethosuximide 100 mg/kg i.p. 30 min before PTZ, control 6.14 ± 1.34 min). Also, the “Latency to the first gen. Clonus” value under setting [1] amounted to 14.16 ± 2.98 min, the “Latency to the first gen. Clonus” value under setting [2] was determined as 21.72 ± 3.03 min, the “Latency to the first gen. Clonus” value under setting [3] came to 11.58 ± 3.57 min and the “Latency to the first gen. Clonus” value under setting [4] came to 12.83 ± 3.14 min. Besides, the “# of mice/ with seizures” value was 12/8^+ under setting [1], 12/7^+ under setting [2], 12/8^+ under setting [3] and 12/8^+ under setting [4].
